Measurements: patent publication US20140314791A1, “METHODS OF TREATING CANCER” (DANA-FARBER CANCER INSTITUTE, INC., priority 2012, published 2014)

Tests used:
Dtymk = assay: QPCR analysis of Dtymk knockdown in Lkb1-wt 634 cells; settings: normalized to shGFP
[1] = test system: dTMP and dTDP levels in Lkb1-wt 634 and Lkb1-null t4 cells; assay: Metabolite analysis of dTMP and dTDP after Dtymk knockdown; type: cell-based, mouse; settings: 3 days
Description: (A) Graph of dTMP and dTDP levels in Lkb1-wt 634, Lkb1-null t4, and human LKB1-deficient NSCLC A549 cells transduced with the indicated shRNA for 3 days. The data represent mean±SD for 6 replicates.
Cells were plated into 6-well plates in RPMI 1640/10% dialyzed FBS/1% pen/strep and medium was changed daily. When the cells reached 80% confluence, they were washed 3 times with warm washing buffer (75 mM ammonium carbonate, pH7.4), and plates were then immediately placed on dry ice. 500 μl of extraction buffer (80% methanol, −80° C.) was added to each well and the plates were kept on dry ice for 15 min. The supernatants were collected into 1.5 ml eppendorf tubes, and another 500 μl of cold extraction buffer was added to each well. After 15 min incubation on dry ice, the supernatant and the cells were collected and pooled with the previously collected supernatant. The tubes were spun at 3750 rpm/4° C. for 30 min, and then supernatants were transferred into fresh tubes and saved at −80° C. All reactions were performed with 5 replicates.
Prior to mass spectrometer injection, dried extracts were reconstituted in LCMS grade water. Non-targeted, flow-injection time-of-flight mass spectrometry was performed as described (Fuhrer et al., 2011). […] Mass spectra were recorded from m/z 50 to 1000 with a frequency of 1.4 spectra/s for 0.48 min using the highest resolving power (4 GHz HiRes). […]

[2] = test system: Lkb1-wt (634, 855, and 857) and Lkb1-null (t2, t4, and t5) cells; assay: Proliferation assay of shRNA-transduced cells (CellTiter-Glo); type: cell-based, mouse; settings: in vitro, puromycin 3 μg/ml
Description: Viable cells were measured daily using Promega's CellTiter-Glo Assay. Two independent sets of transductions into the 6 cell lines were shown: the first set used shGFP, shDtymk-1, and shChek1-4 (upper panels), and the second set used shGFP, shDtymk-3, and shChek1-1 (lower panels).
Lentiviral production and target cell transduction were performed according to previously description (Moffat et al., 2006). Briefly, 293T cells were co-transfected with pLenti-vector, pCMV-dR8.74psPAX2, and pMD2.G using TransIT-LT1 transfection reagent (Mirus). Thirty-six h after transfection, the supernatant was harvested and spun at 3000 rpm/4° C. for 10 min, and then incubated with target cells in the presence of 8 μg/ml polybrene (Sigma) for 24 h. Two days after infection, the cells were collected for further analysis as indicated in the presence of 3 μg/ml Puromycin (Invitrogen).
Cells were plated into 96-well plates at 2000 cells per well in 100 μl, with addition of puromycin at 3 μg/ml for shRNA lentivirus infected cells, or with addition of variable doses of drug for drug treatment effects. Viable cells were measured daily or for a period of up to 3 days either by CellTiter-Glo Luminescent Cell Viability Assay (Promega) or by Cell Counting Kit-8 (CCK-8) (Dojindo) according to the manufacturer's instructions. All proliferation assays were performed in triplicate wells.
Depletion of DTYMK and CHEK1 was confirmed by Western blot (FIG. 11B).

shDtymk-1: shRNA hairpin CAAGCTTCTGAATTCCTACTT targeting Mouse Dtymk
mRNA remaining (by qPCR) (Dtymk): 20.00% | dTDP level [1]: moderate decrease | dTMP level [1]: significant increase | cell growth compared to shGFP control, Lkb1-null versus Lkb1-wt [2]: inhibition was stronger in Lkb1-null cells
